# According to patent US20220288001A1, “CREATINE FOR IMMUNOTHERAPY” (The Regents of the University of California, priority 2019, published 2022):
# Entries after “also recorded” stand apart in the source; their conditions may differ.
# Assays:
# Assay type in all cases: cell-based, mouse
# [1] = tested on: AMPK; assay: Western blot of AMPK and TCR signaling events in CD8 T cells with AICAR treatment
# Procedure: In some other experiments, AICAR (5-aminoimidazole-4-carboxamide 1-β-D-ribofuranoside, Cat #A9978, Sigma-Aldrich), an AMPK activator, was reconstituted in DMSO and used to pretreat T cells for 30 minutes, at the concentration of 2 mM followed by 20 minutes of anti-CD3 stimulation for western blot analysis of TCR signaling events, or at the concentration of 250 μM followed by 16 hours of anti-CD3 stimulation for flow cytometry analysis of CD25 expression and ELISA analysis of IL-2 production.
# Total protein was extracted using RIPA lysis buffer (Thermo Fisher Scientific) supplemented with a phosphatase inhibitor cocktail (Sigma-Aldrich) and a protease inhibitor cocktail (Roche) following the manufacturers' instructions. Nuclear protein was extracted using a Nuclear Protein Extraction Kit (Thermo Fisher Scientific) following the manufacturer's instructions, or using homemade reagents (10 mM HEPES pH 7.9, 10 mM KCl, 0.34 M sucrose, 10% glycerol, 1 mM DTT, 0.1% Triton X-100, 1.5 mM MgCl2 and protease inhibitor cocktail) following a previously established protocol (Ma et al., 2019). Protein concentration was measured by a BCA assay (Cat #23228 and Cat #1859078, Thermo Fisher Scientific). Equal amounts of protein were resolved on a 12% SDS-PAGE gel and then transferred to a PVDF membrane by electrophoresis. The following anti-mouse antibodies were purchased from Cell Signaling Technology and used to blot for the protein of interest: p-Zap-70 (cat #2705S; clone 99F2); Zap-70 (cat #2717S; clone Y319); p-Lck (cat #2751S; clone Y505); Lck (cat #2752S); p-c-Jun (cat #9261S; clone S63); NFAT (cat #4389S); NF-κB p65 (cat #8242P; clone D14E12); AMPK (cat #5831T; clone D5A2); p-AMPK (cat #2535T; clone 40H9), secondary anti-mouse (cat #7076P2), and secondary anti-rabbit (cat #7074P2). Anti-mouse CrT (SLC6A8) (cat #PA5-37060) was purchased from Thermo Fisher Scientific. β-Actin (Santa Cruz Biotechnology Inc.; cat #sc-69879; clone AC-15) was used as an internal control for total protein extracts, while Lamin A (Santa Cruz Biotechnology; cat #sc-71481; clone 4A58) was used as an internal control for nuclear protein extracts. Signals were visualized with autoradiography using an ECL system (Cat #RPN2232, Thermo Fisher Scientific). Data analysis was performed using ImageJ software (NIH).
# [2] = tested on: CD8 T cells; assay: CD8 T cell activation with AICAR treatment (CD25 flow cytometry, IL-2 ELISA); conditions: CrT-WT and CrT-KO CD8 T cells; AICAR 250 μM; anti-CD3 16 hours
# Procedure: CD8 T cells were cultured in vitro in standard T cell culture medium comprising RPMI 1640 (Cat #10040, Corning), 10% FBS (Cat #F2442, Sigma), 1% Penicillin-Streptomycin-Glutamine (Cat #10378016, Gibco), 1% MEM Non-Essential Amino Acids Solution (Cat #11140050, Gibco), 1% HEPES (Cat #15630080, Gibco), 1% Sodium Pyruvate (100 mM) (Cat #11360070, Gibco), and 0.05 mM β -Mercaptoethanol (Cat #M3148, Sigma). Unless otherwise indicated, cells were seeded at 0.5×10^6 cells per well in 24-well plates and stimulated with plate-bound anti-CD3 (5 μg/ml) (clone 145-2C11), for up to 5 days. At indicated time point(s), cells were collected and analyzed for CrT mRNA expression using qPCR, for cell proliferation through cell counting, for viability through Annexin V/7-AAD staining followed by flow cytometry analysis, for surface activation marker (CD25) expression through surface staining followed by flow cytometry analysis, for effector molecule (Granzyme B, IL-2, and IFN-γ) production through intracellular staining followed by flow cytometry analysis, and for cytokine (IL-2 and IFN-γ) secretion through collecting cell culture supernatants followed by ELISA analysis. CrT protein expression and TCR signaling events were analyzed using western blot analysis. […]
# [3] = tested on: CD8 T cells; assay: CD8 T cell activation in vitro with ATP supplementation (CD25 flow cytometry, IFN-γ ELISA); conditions: ATP 100 μM, anti-CD3
# Procedure: CD8 T cells were cultured in vitro in standard T cell culture medium comprising RPMI 1640 (Cat #10040, Corning), 10% FBS (Cat #F2442, Sigma), 1% Penicillin-Streptomycin-Glutamine (Cat #10378016, Gibco), 1% MEM Non-Essential Amino Acids Solution (Cat #11140050, Gibco), 1% HEPES (Cat #15630080, Gibco), 1% Sodium Pyruvate (100 mM) (Cat #11360070, Gibco), and 0.05 mM β -Mercaptoethanol (Cat #M3148, Sigma). Unless otherwise indicated, cells were seeded at 0.5×10^6 cells per well in 24-well plates and stimulated with plate-bound anti-CD3 (5 μg/ml) (clone 145-2C11), for up to 5 days. At indicated time point(s), cells were collected and analyzed for CrT mRNA expression using qPCR, for cell proliferation through cell counting, for viability through Annexin V/7-AAD staining followed by flow cytometry analysis, for surface activation marker (CD25) expression through surface staining followed by flow cytometry analysis, for effector molecule (Granzyme B, IL-2, and IFN-γ) production through intracellular staining followed by flow cytometry analysis, and for cytokine (IL-2 and IFN-γ) secretion through collecting cell culture supernatants followed by ELISA analysis. CrT protein expression and TCR signaling events were analyzed using western blot analysis.
# (§1) In some experiments, ATP (adenosine-5′-triphosphate disodium salt hydrate, Cat #A6419, Sigma-Aldrich) was reconstituted in sterile PBS and added to T cell culture (100 μM) for two to three days along with anti-CD3 stimulation, followed by analyzing T cell surface activation marker (CD25) expression using flow cytometry, and analyzing effector cytokine (IFN-γ) secretion using ELISA. In some experiments, T cells were stimulated with anti-CD3 for 48 hours, rested at 4° C. for 2 hours, then restimulated with anti-CD3 for 30 minutes in the presence or absence of ATP supplementation (100 μM) followed by analyzing TCR signaling events using western blot.
# ELISA was performed for the detection of cytokines according to a BD Biosciences protocol. […] The absorbance was measured at 450 nm using an Infinite M1000 microplate reader (Tecan).
# [4] = tested on: TCR signaling; assay: Western blot of TCR signaling events in CrT-KO CD8 T cells with ATP supplementation; conditions: ATP 100 μM, restimulated with anti-CD3 30 minutes
# Procedure: as §1
# Total protein was extracted using RIPA lysis buffer (Thermo Fisher Scientific) supplemented with a phosphatase inhibitor cocktail (Sigma-Aldrich) and a protease inhibitor cocktail (Roche) following the manufacturers' instructions. Nuclear protein was extracted using a Nuclear Protein Extraction Kit (Thermo Fisher Scientific) following the manufacturer's instructions, or using homemade reagents (10 mM HEPES pH 7.9, 10 mM KCl, 0.34 M sucrose, 10% glycerol, 1 mM DTT, 0.1% Triton X-100, 1.5 mM MgCl2 and protease inhibitor cocktail) following a previously established protocol (Ma et al., 2019). Protein concentration was measured by a BCA assay (Cat #23228 and Cat #1859078, Thermo Fisher Scientific). […]
SMILES,"activation of NFAT ([1]; CD8 T cells, AICAR 2 mM)","activation of Zap-70 ([1]; CD8 T cells, AICAR 2 mM)","AP-1 transcription factor activation (c-Jun subunit) ([1]; CrT-WT and CrT-KO CD8 T cells, AICAR 2 mM)","AMPK activation ([1]; CrT-WT and CrT-KO CD8 T cells, AICAR 2 mM pretreatment 30 minutes)",cell surface activation marker expression (CD25) [2],effector cytokine production (IL-2) [2],"effector cytokine IFN-γ production ([3]; CrT-KO CD8 T cells, day 3)","surface activation marker CD25 expression ([3]; CrT-KO CD8 T cells, day 3)","activation of CD8 T cells (CD25) ([3]; CrT-WT CD8 T cells, 48 hours, disodium salt hydrate)",TCR signaling deficiencies [4]
"NC(=O)c1ncn([C@@H]2O[C@H](CO)[C@@H](O)[C@H]2O)c1N [AICAR, 5-aminoimidazole-4-carboxamide 1-β-D-ribofuranoside]",not affected,not affected,significant reduction,markedly activated AMPK,significant reduction,significant reduction,–,–,–,–
"Nc1ncnc2c1ncn2[C@@H]1O[C@H](COP(=O)([O-])OP(=O)([O-])OP(=O)(O)O)[C@@H](O)[C@H]1O.O.[Na+].[Na+] [ATP, adenosine-5′-triphosphate disodium salt hydrate]",–,–,–,–,–,–,enhanced production,increased expression,further increased the activation; also recorded: further enhanced the activation,effectively rescued
